Source: publication PMC7081907, “Discovery and Selection of Hepatitis B Virus-Derived T Cell Epitopes for Global Immunotherapy Based on Viral Indispensability, Conservation, and HLA-Binding Strength” (Journal of Virology, 2020)
Marks after values point to notes of the source that are not given here.

Key:
[1] = molecular target: HLA-B*08:01 (Homo sapiens, UniProt P01889, A93T/A95T/D138N/E176V/E187T/K202T/Q94N/R180D/S35A/V36M/Y33D/Y91F); test: UV-based in vitro HLA binding assay (peptide exchange + HLA-I ELISA), HLA-B*08:01; conditions: conditional pHLA 0.53 μM, peptide 50 μM, 30 min 366-nm UV, absorbance 414 nm normalized to high-affinity positive control (100%), two exchanges, each in duplicate
Excerpt: Nonbound material was removed by washing. […] Every peptide was independently exchanged twice.

[2] = system: HBV-specific T cells; conditions: cumulative over papers, responder = positive multimer staining and/or IFN-γ ELISPOT, ref Hepitopes database [24], [49], cited from earlier work; for % responders (no. of responders/total no. of subjects tested), HCC: HBV-positive HCC patients; for % responders (no. of responders/total no. of subjects tested), Chronic: chronic HBV patients; for % responders (no. of responders/total no. of subjects tested), Acute: patients with acute/resolved HBV infection, asterisk = significantly more prevalent than in other groups;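 for all read-outs here: responder rates refer to previously reported epitopes of HBx or polymerase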
[3] = molecular target: HLA-B*07:02 (Homo sapiens, UniProt P01889); test: UV-based in vitro HLA binding assay (peptide exchange + HLA-I ELISA), HLA-B*07:02; conditions: conditional pHLA 0.53 μM, peptide 50 μM, 30 min 366-nm UV, absorbance 414 nm normalized to high-affinity positive control (100%), two exchanges, each in duplicate
Method: (§1) Next, the HLA-binding capacity of selected peptides was tested in a UV-based in vitro binding assay. […] HLA-A*11:01 and HLA-A*03:01 were both tested as members of the HLA-A*03 supertype since many HBV-infected patients are Asian and HLA-A*11:01 is more prevalent in this population than the supertype representative HLA-A*03:01, which is more prevalent in Caucasians ([72]). We identified 13 binders for HBx and 33 for Pol across HLA supertypes, including novel binders that have been described previously in the context of another HLA type (Fig. 5A to G, dotted underlining, and Fig. 5H). […] In contrast, binding of infrequently reported epitopes (Fig. 5, solid underlining) could not always be verified.
(§2) Synthetic peptides (Peptide 2.0 Inc.) of selected potential HLA binders were used in an in vitro binding assay as described previously ([96]). […] Subsequently, the peptide exchange efficiency was analyzed using an HLA-I enzyme-linked immunosorbent assay (ELISA), which detects beta-2-microglobulin of peptide-stabilized HLA-I complexes in an exchange reaction mixture. […] The reaction was stopped after 8 min (incubation at room temperature) by the addition of a 2% (wt/vol) oxalic acid dihydrate stop solution (Sanquin Reagents BV) and read in a Thermo Electron Multiskan Ascent ELISA reader at 414 nm. […] Every exchange mixture was measured in duplicate by the HLA-I ELISA. […]

[4] = system: PBMCs from blood donors who had previously resolved an HBV infection; test: Immunogenicity: IFN-γ ELISA on peptide-expanded PBMCs of HBV resolvers; type: cell-based, human; conditions: for number of responsive donors as a fraction of the total number of subjects tested: PBMCs expanded 14 days, restimulated 48 h, 10 μg/ml/peptide, response = mean OD ≥ mean + 2 SD of DMSO; for IFN-γ production in response to peptide, in words: expanded PBMCs from 9 HBV resolvers, HLA-matched, single-peptide restimulation 48 h, 10 μg/ml, DMSO-subtracted
Method: Finally, the immunogenicity of all HBx- and Pol-derived binders was assessed to determine which binders would be most interesting for the development of an antigen-based HBV-targeting immunotherapy.
Briefly, PBMCs were isolated by Ficoll (GE Healthcare) density centrifugation from buffy coats of 9 donors who had previously resolved HBV infection. Buffy coats were provided by the local blood bank with corresponding 2-digit HLA types. Four-digit HLA typing was performed for 7 out of 9 donors using the global screening array (GSA) (Illumina through the Human Genomics Facility, Erasmus MC Rotterdam) (Table 3). All donors gave written informed consent. PBMCs were cultured in Iscove’s modified Dulbecco’s medium (IMDM) (Lonza) containing 2% human serum (Sanquin) and 50 IU/ml human interleukin-2 (hIL-2) (Miltenyi) in the presence of peptide pools of a maximum of 5 peptides of interest based on HLA matching at 10 μg/ml/peptide. After 14 days, 200,000 cells were restimulated with the peptides of interest for 48 h at 37°C with 10 μg/ml/peptide in triplicate. Supernatants from restimulations were subsequently used in a human IFN-γ (hIFN-γ) ELISA (BioLegend) according to the manufacturer’s instructions. Plates were read at a 450-nm wavelength using an Infinite 200Pro ELISA reader. hIFN-γ levels were calculated from background-subtracted optical density (OD) values (means from triplicates) using a supernatant derived from a previously successful restimulation with c18-27 that was quantified in a separate ELISA using the hIFN-γ standard provided by the manufacturer. HLA binders with a mean OD value of at least the mean plus 2 times the standard deviation (SD) of the dimethyl sulfoxide (DMSO) control were quantified.

[5] = system: cytotoxic T cells; conditions: HLA-A*24:02 peptide, ref Yamamiya et al. [89]; cited from earlier work
Excerpt: We identified a few novel epitopes for which the sequence overlaps that of an epitope that has previously been described for the HLA type tested. […] It would now be interesting to investigate how responses to these epitope variants relate in CHB patients, especially since p755-764 has been the only HBV-derived epitope described for supertype HLA-A*24 until very recently. For HLA-A*24:02, we studied the binding cap ...

[6] = molecular target: HLA-A*24:02 (Homo sapiens, UniProt P04439, D101N/D140Y/D185E/E176V/E190D/F33S/G103R/G107R/I119L/I121M/I306V/K335N/L105A/L180Q/L300P/N151K/N90K/Q86E/Q94H/R106L/R138H/R89G/T104I/T345S/V100E/W191G/Y123F); test: UV-based in vitro HLA binding assay (peptide exchange + HLA-I ELISA), HLA-A*24:02; conditions: conditional pHLA 0.53 μM, peptide 50 μM, 30 min 366-nm UV, absorbance 414 nm normalized to high-affinity positive control (100%), two exchanges, each in duplicate
Method: as §1, §2

Sequence | % responders (no. of responders/total no. of subjects tested), HCC [2] | % responders (no. of responders/total no. of subjects tested), Chronic [2] | % responders (no. of responders/total no. of subjects tested), Acute [2] | further results
HLSLRGLPV [x52-60] | 19 (3/16) % | 0 (0/20) % | – | HLA binding class (binder/nonbinder), HLA-B*08:01 [1]: binder (binders (>25% of the positive control))
TPARVTGGVF [p365-374] | – | – | 17 (2/12) % | HLA binding class (binder/nonbinder), HLA-B*07:02 [3]: binder (binders (>25% of the positive control)); number of responsive donors as a fraction of the total number of subjects tested ([4]; HLA-B*07:02 donors): 4/4
GLSRYVARL [p453-461] | 0 (0/10) % | 6 (5/87) % | 50 (39/78)* % | –
NVSIPWTHK [p47-55] | – | – | 5 (1/21) % | –
QLDPARDVL | 0 (0/10) % | 0 (0/20) % | 25 (1/4) % | –
VLGGCRHKL [x133-141] | 0 (0/10) % | 0 (0/20) % | – | –
VLHKRTLGL [x92-100] | 19 (3/16) % | 0 (0/20) % | – | HLA binding class (binder/nonbinder), HLA-B*08:01 [1]: binder (binders (>25% of the positive control))
NLSWLSLDV [p422-430] | 0 (0/10) % | – | – | –
SAICSVVRR | – | – | 9 (2/22) % | –
YPALMPLYA [p651-659] | – | – | 0 (0/12) % | –
KVGNFTGLY [p55-63] | – | – | 9 (2/22) % | –
RKYTSFPWLL [p755-764] | – | – | – | IFN-γ production in response to peptide, in words [4]: superior IFN-γ production compared to the known epitope p756-764 in both donors tested
GYPALMPLY [p650-658] | – | – | – | number of responsive donors as a fraction of the total number of subjects tested ([4]; HLA-A*24:02 donors): 1 of the 2; responding HBV resolvers [5]: none of the 3
ASFCGSPYSW [p166-175] | – | – | – | HLA binding class (binder/nonbinder), HLA-A*24:02 [6]: binder (binders (>25% of the positive control))
TLWKAGILYK [p150-159] | – | – | 18 (5/28) % | –
ILRGTSFVYV | – | 0 (0/9) % | 43 (3/7) % | –
CLFKDWEEL | 50 (3/6) % | – | – | –
ALMPLYACI [p653-661] | 0 (0/10) % | 0 (0/9) % | 20 (4/20) % | –
HTLWKAGILYK [p149-159] | – | – | 5 (1/22) % | –
KLVCSPAPC | 50 (3/6) % | – | – | –
YLHTLWKAGI [p147-156] | 0 (0/10) % | – | – | –
QAFTFSPTYK [p665-674] | – | – | 14 (3/21) % | –
FLLSLGIHL [p573-581] | 0 (0/10) % | 13 (9/70) % | 59 (50/85)* % | –
HPAAMPHLL [p440-448] | – | – | 0 (0/12) % | –
SLYADSPSV [p814-822] | – | 0 (0/22) % | 25 (11/44)* % | –
KYTSFPWLL [p756-764] | – | 48 (10/21) % | 93 (13/14)* % | –
YMDDVVLGA [p549-557] | 0 (0/10) % | 0 (0/21) % | 15 (2/13) % | IFN-γ production in response to peptide, in words [4]: IFN-γ production was detected
LVVDFSQFSR [p388-397] | – | – | 5 (1/22) % | –
